Test results taken from patent US20250144131A1, “POLYSACCHARIDE COMPOUND WITH A DEFINED MOLECULAR STRUCTURE FOR THE TREATMENT OF PULMONARY FIBROSIS” (SHENZHEN YANDAI INVESTMENT CO., LTD, priority 2023, published 2025).

How the values were obtained:
Format in all cases: in vivo, C57BL/6J mice
[1] = tested on: bleomycin-induced pulmonary fibrosis model; experiment: General behavioral observation in bleomycin-induced pulmonary fibrosis mice; details: oral 21 days, pirfenidone 225 mg/kg, GLP-4 low-dose 200 mg/kg
Protocol: (§1) Fifty male SPF C57BL/6J mice were randomized by weight into the normal control group, model control group, positive control group, GLP-4 low-dose group, and GLP-4 high-dose group, with 10 animals in each group. Ten animals not subjected to modeling served as the normal control group. The remaining animals were modeled by administering bleomycin via tracheal injection at 5 mg/kg, 0.1 mL per mouse, one-time administration. Starting on day 7 post-modeling, the study drug, positive drug, or solvent was administered orally at 10 mL/kg once daily for 21 consecutive days. During the experimental period, daily observations were made for each group's food intake, activity, breathing, and responsiveness; pulmonary function was tested before administration and about 24 h after the last dose. After completing pulmonary function tests, the mice were euthanized for pathological sampling.
General behavioral observation: During the trial period, daily observations were made on the animals' consumption, activity, breathing, and responsiveness.

[2] = tested on: bleomycin-induced pulmonary fibrosis model; experiment: Lung function test (EMKA WBP) in bleomycin-induced pulmonary fibrosis mice
Protocol: as §1
Lung function: Lung function in mice was measured using the EMKA WBP animal lung function assessment system both before administration and approximately 24 h after the last dose. Measurements included inspiratory (expiratory) duration, maximum inspiratory (expiratory) volume, tidal volume, expiratory volume, relaxation time, minute ventilation, respiratory rate, end inspiratory (expiratory) pause, bronchoconstriction parameters, 50% expiratory flow, alveolar ventilation, and number of breaths.

[3] = tested on: bleomycin-induced pulmonary fibrosis model; experiment: Pulmonary histopathology (H&E, pathology scores) in bleomycin-induced pulmonary fibrosis mice
Protocol: as §1
Pulmonary histopathology: Following lung function tests, mice were euthanized, and a laparotomy was performed. Whole-body perfusion was conducted using saline through the portal vein followed by thoracotomy and perfusion-fixation with 10% formaldehyde solution for 5 min. The trachea was then ligated, the lungs were harvested, and further fixed in formalin solution for 48 h. Hematoxylin and eosin (H&E) staining was performed to observe pathological changes.

[4] = 21 days post-dosing, pirfenidone 225 mg/kg po daily
[5] = prior to administration (one week post-modeling), pirfenidone 225 mg/kg group

Compound: Cc1ccc(=O)n(-c2ccccc2)c1 [positive control, pirfenidone]
- General behavior compared to the model control group [1]: noticeable improvements in appetite, activity, breathing, responsiveness, and fur condition
- AV (alveolar ventilation) [2, 4]: 119.87 ± 38.33 mL
- EEP (end expiratory pause) [2, 4]: 5.89 ± 0.57 ms
- EF50 (50% expiratory flow) [2, 4]: 5.31 ± 0.91 mL/s
- EIP (end inspiratory pause) [2, 4]: 18.83 ± 9.94 ms
- EV (expiratory volume) [2, 4]: 0.14 ± 0.01 mL
- MV (minute ventilation) [2, 4]: 64.98 ± 11.84 mL
- PEF (peak expiratory flow) [2, 4]: 5.59 ± 0.86 mL/s
- PIF (peak inspiratory flow) [2, 4]: 4.49 ± 0.75 mL/s
- Penh (bronchoconstriction parameters) [2, 4]: 0.56 ± 0.22
- RT (relaxation time) [2, 4]: 57.72 ± 22.68 ms
- TV (tidal volume) [2, 4]: 0.14 ± 0.01 mL
- Te (expiratory duration) [2, 4]: 73.20 ± 22.54 ms
- Ti (inspiratory duration) [2, 4]: 79.85 ± 12.82 ms
- n (number of breaths) [2, 4]: 40.22 ± 17.53
- Lung function indices compared to the model control group ([2]; bleomycin mice, 21 days post-dosing, pirfenidone 225 mg/kg, GLP-4 low-dose 200 mg/kg): significant increases in PIF, PEF, TV, EV, MV, EF50, and alveolar ventilation (AV)
- AV (alveolar ventilation) [2, 5]: 70.49 ± 10.76 mL
- EEP (end expiratory pause) [2, 5]: 5.70 ± 0.71 ms
- EF50 (50% expiratory flow) [2, 5]: 5.68 ± 0.95 mL/s
- EIP (end inspiratory pause) [2, 5]: 62.63 ± 33.56 ms
- EV (expiratory volume) [2, 5]: 0.15 ± 0.02 mL
- MV (minute ventilation) [2, 5]: 52.78 ± 12.68 mL
- PEF (peak expiratory flow) [2, 5]: 5.94 ± 0.94 mL/s
- PIF (peak inspiratory flow) [2, 5]: 4.63 ± 0.69 mL/s
- Penh (bronchoconstriction parameters) [2, 5]: 0.44 ± 0.15
- RT (relaxation time) [2, 5]: 105.6 ± 46.61 ms
- TV (tidal volume) [2, 5]: 0.15 ± 0.02 mL
- Te (expiratory duration) [2, 5]: 120.91 ± 48.12 ms
- Ti (inspiratory duration) [2, 5]: 109.26 ± 23.25 ms
- n (number of breaths) [2, 5]: 23.82 ± 4.54
- Fibrotic tissue proliferation ([3]; bleomycin mice, H&E, pirfenidone 225 mg/kg, GLP-4 low-dose 200 mg/kg): no fibrotic tissue proliferation
- Pathology score ([3]; lung, pirfenidone 225 mg/kg po daily, 21 days): 6.22 ± 3.31
